Test [1] concerns the target cGMP-dependent protein kinase 1 (Homo sapiens, UniProt Q13976). The format is functional.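 Also: value from a kinome panel screen with PRKG1 as the panel member.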
The target in test [2] is Phosphorylase b kinase gamma catalytic chain, liver/testis isoform (Homo sapiens, UniProt P15735). Type of test: functional.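 Also: PHKG2 measured as one member of a kinome-wide kinase panel.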
Test [3] addresses Serine/threonine-protein kinase Chk2 (Homo sapiens, UniProt O96017). Type of test: functional.
For test [4], the target named is Mitogen-activated protein kinase 8 (Homo sapiens, UniProt P45983). Type of test: functional.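 Also: value comes from one member of a kinome-wide kinase profiling panel.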
Chain of Mitogen-activated protein kinase 8 (P45983 whole entry, canonical isoform): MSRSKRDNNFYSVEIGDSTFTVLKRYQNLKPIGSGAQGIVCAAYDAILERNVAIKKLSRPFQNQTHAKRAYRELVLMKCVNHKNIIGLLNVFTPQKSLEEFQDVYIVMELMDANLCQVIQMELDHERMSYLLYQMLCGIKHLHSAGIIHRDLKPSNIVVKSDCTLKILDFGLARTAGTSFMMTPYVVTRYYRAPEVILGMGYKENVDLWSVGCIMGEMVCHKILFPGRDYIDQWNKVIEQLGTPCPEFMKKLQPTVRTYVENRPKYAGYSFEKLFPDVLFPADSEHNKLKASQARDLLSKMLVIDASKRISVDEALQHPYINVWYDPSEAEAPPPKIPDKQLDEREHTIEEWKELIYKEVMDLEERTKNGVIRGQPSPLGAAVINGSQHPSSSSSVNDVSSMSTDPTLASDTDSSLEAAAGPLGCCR
The target of test [5] is Casein kinase I isoform alpha (Homo sapiens, UniProt P48729). The format is functional.
Chain of Casein kinase I isoform alpha (P48729 whole entry, canonical isoform): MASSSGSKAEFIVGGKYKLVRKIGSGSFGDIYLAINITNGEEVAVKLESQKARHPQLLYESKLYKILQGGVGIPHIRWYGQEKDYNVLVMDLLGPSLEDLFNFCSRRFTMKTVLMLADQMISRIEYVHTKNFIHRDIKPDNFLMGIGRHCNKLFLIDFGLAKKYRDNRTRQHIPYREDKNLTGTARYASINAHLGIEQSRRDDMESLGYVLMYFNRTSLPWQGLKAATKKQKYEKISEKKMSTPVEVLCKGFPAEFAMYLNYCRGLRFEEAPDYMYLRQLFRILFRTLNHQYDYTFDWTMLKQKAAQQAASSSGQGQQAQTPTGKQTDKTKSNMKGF
Test [6] has as its target Mitogen-activated protein kinase kinase kinase 20 (Homo sapiens, UniProt Q9NYL2). Type of test: functional.
The target in test [7] is MAP kinase-activated protein kinase 3 (Homo sapiens, UniProt Q16644). Type of test: functional.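 Also: value comes from a kinome-wide profiling panel in which MAPKAPK3 is one of the panel members.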
In test [8] the target is Rho-associated protein kinase 1 (Homo sapiens, UniProt Q13464). The format is functional.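 Also: measured within a broad kinome-wide panel profiling many kinases.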
Test [9] concerns the target Homeodomain-interacting protein kinase 4 (Homo sapiens, UniProt Q8NE63). Type of test: functional.
Test [10] concerns the target Serine/threonine-protein kinase DCLK1 (Homo sapiens, UniProt O15075). Type of test: functional.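 Also: affinity for DCLK1 (listed as DCAMKL1) measured as one member of a kinome-wide kinase profiling panel.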
Test [11] deals with Serine/threonine-protein kinase Nek2 (Homo sapiens, UniProt P51955). The format is functional.
Chain of Serine/threonine-protein kinase Nek2 (P51955 whole entry): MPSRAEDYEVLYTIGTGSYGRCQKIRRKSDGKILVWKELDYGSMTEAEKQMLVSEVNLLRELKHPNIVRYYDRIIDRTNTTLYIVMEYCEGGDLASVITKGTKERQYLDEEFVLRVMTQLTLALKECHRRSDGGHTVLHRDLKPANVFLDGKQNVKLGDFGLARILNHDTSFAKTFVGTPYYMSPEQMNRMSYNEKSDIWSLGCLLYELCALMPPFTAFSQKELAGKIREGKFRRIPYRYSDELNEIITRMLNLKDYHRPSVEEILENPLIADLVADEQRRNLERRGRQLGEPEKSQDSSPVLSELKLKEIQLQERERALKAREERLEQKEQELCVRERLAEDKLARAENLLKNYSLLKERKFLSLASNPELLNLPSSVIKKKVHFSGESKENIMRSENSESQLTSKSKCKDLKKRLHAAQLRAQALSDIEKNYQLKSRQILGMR
The target in test [12] is cAMP-dependent protein kinase catalytic subunit alpha (Homo sapiens, UniProt P17612). The format is functional.
Test [13] addresses Lymphokine-activated killer T-cell-originated protein kinase (Homo sapiens, UniProt Q96KB5). Type of test: functional.
For test [14], the target named is Serine/threonine-protein kinase 3 (Homo sapiens, UniProt Q13188). The format is functional.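 Also: measured as one member of a kinome-wide kinase panel.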
Chain of Serine/threonine-protein kinase 3 (Q13188 whole entry): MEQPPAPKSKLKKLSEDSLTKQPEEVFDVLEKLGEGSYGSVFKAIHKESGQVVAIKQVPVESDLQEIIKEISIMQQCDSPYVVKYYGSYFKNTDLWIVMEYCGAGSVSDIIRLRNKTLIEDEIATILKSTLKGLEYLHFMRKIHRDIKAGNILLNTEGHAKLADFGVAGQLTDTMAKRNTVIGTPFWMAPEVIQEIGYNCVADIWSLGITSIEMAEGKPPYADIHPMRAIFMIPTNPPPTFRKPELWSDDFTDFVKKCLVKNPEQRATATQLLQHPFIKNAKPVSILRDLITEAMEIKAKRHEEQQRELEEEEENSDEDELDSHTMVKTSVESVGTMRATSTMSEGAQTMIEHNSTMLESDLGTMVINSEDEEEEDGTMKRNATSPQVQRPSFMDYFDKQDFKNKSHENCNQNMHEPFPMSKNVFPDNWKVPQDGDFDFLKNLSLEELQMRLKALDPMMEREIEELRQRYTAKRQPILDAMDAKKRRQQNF
Test [15] concerns the target T1, Apoptotic protease-activating factor 1 (Homo sapiens, UniProt O14727).
T1 sequence (O14727 whole entry): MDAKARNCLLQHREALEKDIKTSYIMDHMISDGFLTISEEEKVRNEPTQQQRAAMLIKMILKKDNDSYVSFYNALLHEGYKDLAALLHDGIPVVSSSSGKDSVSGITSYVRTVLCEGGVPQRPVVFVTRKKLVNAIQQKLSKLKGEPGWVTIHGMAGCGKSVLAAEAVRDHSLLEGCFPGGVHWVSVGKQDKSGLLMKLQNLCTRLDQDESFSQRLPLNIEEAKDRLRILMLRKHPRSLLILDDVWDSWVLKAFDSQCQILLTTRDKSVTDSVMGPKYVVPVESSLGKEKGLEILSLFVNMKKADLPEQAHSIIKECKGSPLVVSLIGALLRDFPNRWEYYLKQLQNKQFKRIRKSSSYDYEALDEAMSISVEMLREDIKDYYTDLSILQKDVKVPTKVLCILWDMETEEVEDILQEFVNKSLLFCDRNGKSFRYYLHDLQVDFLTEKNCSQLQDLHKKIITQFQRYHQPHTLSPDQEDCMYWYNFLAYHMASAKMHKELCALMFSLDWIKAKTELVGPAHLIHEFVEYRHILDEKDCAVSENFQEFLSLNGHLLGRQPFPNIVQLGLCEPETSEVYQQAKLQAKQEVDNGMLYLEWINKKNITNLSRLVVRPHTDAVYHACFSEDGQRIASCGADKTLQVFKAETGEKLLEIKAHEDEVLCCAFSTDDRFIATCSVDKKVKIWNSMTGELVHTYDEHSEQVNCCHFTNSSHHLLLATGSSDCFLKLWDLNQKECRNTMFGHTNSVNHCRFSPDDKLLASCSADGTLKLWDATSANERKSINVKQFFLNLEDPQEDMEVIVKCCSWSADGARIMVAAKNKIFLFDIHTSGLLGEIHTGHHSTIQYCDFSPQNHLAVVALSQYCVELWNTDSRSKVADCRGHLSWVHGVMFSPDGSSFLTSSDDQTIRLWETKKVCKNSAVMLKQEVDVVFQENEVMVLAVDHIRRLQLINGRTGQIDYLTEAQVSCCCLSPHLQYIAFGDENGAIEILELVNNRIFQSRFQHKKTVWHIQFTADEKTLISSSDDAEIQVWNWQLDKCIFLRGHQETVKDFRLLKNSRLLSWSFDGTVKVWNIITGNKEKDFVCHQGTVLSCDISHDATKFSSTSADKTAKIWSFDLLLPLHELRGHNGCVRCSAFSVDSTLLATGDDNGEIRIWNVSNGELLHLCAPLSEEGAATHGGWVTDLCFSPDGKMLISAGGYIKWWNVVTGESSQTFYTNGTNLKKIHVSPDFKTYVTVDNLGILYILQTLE
The format is functional.

Test [16] addresses Dual specificity tyrosine-phosphorylation-regulated kinase 1A (Rattus norvegicus, UniProt Q63470). The format is biochemical, Homo sapiens.
For another test, the target named is T2, Streptokinase A (Streptococcus pyogenes serotype M1, UniProt P10520).
T2 sequence (P10520 whole entry): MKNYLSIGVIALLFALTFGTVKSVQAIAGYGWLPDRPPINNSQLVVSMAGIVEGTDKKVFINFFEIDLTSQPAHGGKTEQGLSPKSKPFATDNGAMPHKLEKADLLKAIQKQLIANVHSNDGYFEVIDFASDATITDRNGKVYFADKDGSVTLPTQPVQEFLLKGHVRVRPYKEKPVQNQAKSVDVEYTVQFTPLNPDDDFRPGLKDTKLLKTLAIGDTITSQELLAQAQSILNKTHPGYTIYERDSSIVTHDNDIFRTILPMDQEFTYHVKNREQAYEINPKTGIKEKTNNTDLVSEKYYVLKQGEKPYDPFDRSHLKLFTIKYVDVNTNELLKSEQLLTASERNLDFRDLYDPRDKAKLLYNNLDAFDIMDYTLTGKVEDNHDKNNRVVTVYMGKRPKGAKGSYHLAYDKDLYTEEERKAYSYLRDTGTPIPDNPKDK
As to the kind of experiment: S. pyogenes streptokinase expression inhibitors, potency, dose response, plasminogen activation absorbance, OD405 (AID 1914).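 Also: secreted streptokinase activity via plasminogen activation per viability signal from cell pellet.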 The format is functional, Streptococcus pyogenes M1 GAS.

In another test the target is Perilipin-1/ABHD5 (Homo sapiens, UniProt O60240+Q8WTS1). The test is described as follows: Luminescence-based biochemical high throughput dose response assay for inhibitors of the interaction of the lipase co-activator protein, abhydrolase domain containing 5 (ABHD5) with perilipin-1 (PLIN1) (2K validation set). [Related pubchem assays (depositor defined):AID493027, AID493057].

3 compounds from ChEMBL document CHEMBL1201862, “PubChem BioAssay data set” (2004) can be followed below.

The source made the active and inactive calls.

Chain of Mitogen-activated protein kinase kinase kinase 20 (Q9NYL2 whole entry): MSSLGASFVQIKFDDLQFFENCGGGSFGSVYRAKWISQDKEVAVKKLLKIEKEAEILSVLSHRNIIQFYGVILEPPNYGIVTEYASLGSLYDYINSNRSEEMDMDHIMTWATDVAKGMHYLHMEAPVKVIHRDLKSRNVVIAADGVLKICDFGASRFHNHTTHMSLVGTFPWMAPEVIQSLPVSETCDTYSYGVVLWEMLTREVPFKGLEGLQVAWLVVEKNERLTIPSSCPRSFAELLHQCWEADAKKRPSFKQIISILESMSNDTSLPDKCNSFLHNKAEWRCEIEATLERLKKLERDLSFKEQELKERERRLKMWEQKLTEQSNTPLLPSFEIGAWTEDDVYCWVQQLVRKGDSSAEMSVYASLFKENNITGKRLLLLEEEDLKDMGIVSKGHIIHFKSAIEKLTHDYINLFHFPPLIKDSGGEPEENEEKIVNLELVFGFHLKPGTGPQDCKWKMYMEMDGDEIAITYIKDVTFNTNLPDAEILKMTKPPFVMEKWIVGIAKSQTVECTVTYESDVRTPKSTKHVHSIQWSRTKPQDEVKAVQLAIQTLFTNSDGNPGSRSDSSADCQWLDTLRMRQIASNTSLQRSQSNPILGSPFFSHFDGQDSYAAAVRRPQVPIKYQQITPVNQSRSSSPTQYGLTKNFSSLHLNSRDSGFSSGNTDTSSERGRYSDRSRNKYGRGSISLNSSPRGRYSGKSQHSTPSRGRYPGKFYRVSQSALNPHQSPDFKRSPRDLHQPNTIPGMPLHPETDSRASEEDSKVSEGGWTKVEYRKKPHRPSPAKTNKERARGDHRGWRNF
Chain of Homeodomain-interacting protein kinase 4 (Q8NE63 whole entry): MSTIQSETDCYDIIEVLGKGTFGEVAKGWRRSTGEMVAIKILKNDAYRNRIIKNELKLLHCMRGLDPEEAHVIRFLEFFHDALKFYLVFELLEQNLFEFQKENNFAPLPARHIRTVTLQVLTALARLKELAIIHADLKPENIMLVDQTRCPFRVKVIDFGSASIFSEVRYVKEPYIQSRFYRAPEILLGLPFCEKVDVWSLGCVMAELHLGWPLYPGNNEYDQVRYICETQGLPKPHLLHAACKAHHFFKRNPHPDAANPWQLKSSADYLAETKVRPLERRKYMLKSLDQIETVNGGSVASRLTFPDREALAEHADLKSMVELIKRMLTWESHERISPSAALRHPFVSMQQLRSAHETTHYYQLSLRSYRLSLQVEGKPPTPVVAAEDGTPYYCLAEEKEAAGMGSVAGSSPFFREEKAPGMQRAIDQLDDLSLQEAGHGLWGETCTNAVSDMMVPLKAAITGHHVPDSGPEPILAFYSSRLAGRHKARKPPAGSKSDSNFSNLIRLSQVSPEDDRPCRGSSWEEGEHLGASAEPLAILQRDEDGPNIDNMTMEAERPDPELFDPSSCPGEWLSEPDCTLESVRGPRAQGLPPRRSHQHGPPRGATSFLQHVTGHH
Chain of Serine/threonine-protein kinase DCLK1 (O15075 whole entry): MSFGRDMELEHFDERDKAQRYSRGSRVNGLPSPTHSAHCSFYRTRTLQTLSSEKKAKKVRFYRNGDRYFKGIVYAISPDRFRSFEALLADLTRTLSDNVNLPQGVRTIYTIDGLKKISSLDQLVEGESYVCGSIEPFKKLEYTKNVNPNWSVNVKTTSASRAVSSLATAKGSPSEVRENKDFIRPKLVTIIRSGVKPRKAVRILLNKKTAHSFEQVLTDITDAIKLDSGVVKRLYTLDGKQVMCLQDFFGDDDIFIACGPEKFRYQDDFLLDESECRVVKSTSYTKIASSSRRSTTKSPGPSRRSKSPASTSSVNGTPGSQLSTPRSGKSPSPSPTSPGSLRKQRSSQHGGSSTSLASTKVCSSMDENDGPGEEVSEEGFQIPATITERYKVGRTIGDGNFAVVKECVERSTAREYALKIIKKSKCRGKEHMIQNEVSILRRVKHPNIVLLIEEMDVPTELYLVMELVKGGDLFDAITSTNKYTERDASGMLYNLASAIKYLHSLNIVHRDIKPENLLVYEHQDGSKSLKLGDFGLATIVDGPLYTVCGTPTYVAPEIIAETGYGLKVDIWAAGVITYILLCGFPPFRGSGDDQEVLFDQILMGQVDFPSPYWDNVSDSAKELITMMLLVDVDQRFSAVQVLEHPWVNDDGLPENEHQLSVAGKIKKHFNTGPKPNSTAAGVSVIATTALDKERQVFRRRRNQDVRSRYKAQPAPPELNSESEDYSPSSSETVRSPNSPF
Chain of Lymphokine-activated killer T-cell-originated protein kinase (Q96KB5 whole entry): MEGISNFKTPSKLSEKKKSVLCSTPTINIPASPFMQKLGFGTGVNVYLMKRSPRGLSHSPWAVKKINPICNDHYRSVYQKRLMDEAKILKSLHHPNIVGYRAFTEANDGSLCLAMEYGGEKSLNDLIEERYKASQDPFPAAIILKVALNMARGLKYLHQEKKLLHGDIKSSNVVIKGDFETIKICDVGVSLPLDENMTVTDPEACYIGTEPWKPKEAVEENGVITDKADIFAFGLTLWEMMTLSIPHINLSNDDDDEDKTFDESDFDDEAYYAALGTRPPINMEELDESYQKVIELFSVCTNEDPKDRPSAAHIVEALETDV
Chain of Serine/threonine-protein kinase Chk2 (O96017 whole entry): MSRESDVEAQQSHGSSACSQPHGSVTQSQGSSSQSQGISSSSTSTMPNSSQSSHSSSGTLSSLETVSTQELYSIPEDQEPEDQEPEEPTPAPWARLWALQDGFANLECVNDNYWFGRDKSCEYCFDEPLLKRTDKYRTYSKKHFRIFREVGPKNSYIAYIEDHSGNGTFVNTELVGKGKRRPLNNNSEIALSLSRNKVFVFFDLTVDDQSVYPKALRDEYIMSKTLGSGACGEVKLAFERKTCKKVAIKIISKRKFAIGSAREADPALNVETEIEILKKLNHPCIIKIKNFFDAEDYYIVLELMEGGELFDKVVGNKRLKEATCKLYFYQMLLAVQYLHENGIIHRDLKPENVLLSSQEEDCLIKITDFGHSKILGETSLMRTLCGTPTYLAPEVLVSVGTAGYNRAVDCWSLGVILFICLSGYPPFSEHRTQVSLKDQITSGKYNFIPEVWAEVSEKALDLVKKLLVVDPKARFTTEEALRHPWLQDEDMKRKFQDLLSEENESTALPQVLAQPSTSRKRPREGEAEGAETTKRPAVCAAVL

Consider `N#Cc1ccc2[nH]c(O)c(-c3ccc(CN4CCOCC4)cn3)c2c1` [AZD-1080], for which the Ki (commonly the dissociation constant of the complex between target and ligand, obtained from inhibition or displacement) in [1] was > 2 µM (inactive); in test [2] it was > 5.01 µM (inactive); in test [3], > 1.58 µM (inactive); in test [4] it was > 5.01 µM (inactive); in [5], > 5.01 µM (inactive); in [6], > 7.94 µM (inactive). Also, the Ki in test [7] is > 10 µM (inactive); in test [8], > 7.94 µM (inactive); in test [9], > 7.94 µM (inactive); in test [10], > 10 µM (inactive); in [11] it was > 10 µM (inactive); in test [12] it was > 3.16 µM (inactive). The Ki was > 10 µM (inactive) in test [13] and > 7.94 µM (inactive) in [14].
Turning to `O=C1C=C(N2CCOCC2)c2ccccc2C1=O`, the IC50 (commonly the concentration that gives 50% inhibition) in test [15] is 1.27 µM (active). For the same compound, the AC50 – broadly, the concentration at which the activity in the assay is half-maximal – in test [16] is 5.14 µM (active).
For `CCc1oc2ccccc2c1C(=O)c1cc(Br)c(O)c(Br)c1` [BENZBROMARONE], the EC50 (as a rule, the concentration needed to bring the measured effect to its halfway point) on Streptokinase A was 17.2 µM (inconclusive). In addition, at Perilipin-1/ABHD5, the IC50 was 15 µM (inactive).
